Reference: patent publication US20240269112A1 (priority 2020, published 2024)

Columns and labels:
[1] = test system: Covid-19 patients admitted to the ICU; assay: IV melatonin in Covid-19 ICU patients: systemic inflammatory response (ferritin, D-dimer, CRP, IL-6, lymphocytes); type: in vivo, human
Description: (§1) To conduct this study, all patients received standard treatment according to institutional protocols. Furthermore, patients were assigned randomly in a 2:1 ratio to receive: • Experimental group (12 patients): 7 days of 5 mg/kg body weight/day of intravenous melatonin every 6 hours. Daily maximum dose of 500 mg a day. • Control group (6 patients): 7 days of 5 mg/kg body weight/day of placebo with identical appearance through the intravenous route every 6 hours.
(§2) After 3 days of treatment, 3 intensive care physicians evaluated each participant and decided whether or not they wished to complete the treatment based on their clinical assessment: • If there were objective or subjective signs of improvement or non-worsening of general clinical condition or respiratory failure, with no observation of inflammatory condition or multiorgan failure, the participant continued treatment until completion. • If an adverse effect or clinical deterioration which can be objectively or subjectively attributed to the study drug was observed, treatment was discontinued.
(§3) The injectable composition was prepared according to the criteria established in Example 1 by adjusting the amounts to 5 mg/kg body weight/day of intravenous melatonin every 6 hours.
(§4) • To evaluate whether iv treatment with melatonin reduced the duration of ICU (intensive care unit) admission. • To evaluate whether iv treatment with melatonin reduced the duration of mechanical ventilation (MV). • To evaluate whether iv treatment with melatonin was associated with an increase in MV-free days. • To evaluate whether iv treatment with melatonin is associated with a reduction in systemic inflammatory response, defined by the levels of ferritin, D-dimer, C-reactive protein (CRP) or procalcitonin (PCT) and IL-6. 1. Evaluating Whether iv Treatment with Melatonin Reduced the Duration of ICU (Intensive Care Unit) Admission (See FIG. 7)

[2] = test system: septic patients who have undergone abdominal surgery; details: human, in vivo
Description: The following parameters related to kidney function have been determined: • Creatinine is a waste molecule generated from muscle metabolism. Creatinine originates from creatine, a very important molecule for energy production in the muscle. About 2% of creatine in the body is converted into creatinine every day. Creatinine is transported from muscles to the kidney by blood. The kidneys filter most of the creatinine and eliminate it in the urine. Determination of serum creatinine is a test which provides a fairly reliable indication of the state of kidney function. • Urea, the determination of which is the most widely used test to assess kidney function. Urea is the end product of protein and amino acid metabolism. In protein degradation, proteins are split into amino acids and deaminated. Urea is synthesized in the liver with the ammonia that is formed. This is the most important pathway for degrading excess nitrogen in the human body.

[3] = test system: septic patients who have undergone abdominal surgery; details: human, in vivo; remark: listed apart in the source
[4] = test system: septic patients who have undergone abdominal surgery; assay: Clinical study with septic patients: blood parameters (leukocytes, red blood cells, hemoglobin, hematocrit, neutrophils, lymphocytes, platelets); details: regardless of time, p=0.007
Description: The following blood parameters from these samples were analyzed for each of the participating patients: the number of leukocytes, the number of red blood cells, hemoglobin, hematocrit, percentage of neutrophils, percentage of lymphocytes, and the number of platelets.

[5] = test system: septic patients who have undergone abdominal surgery; details: human, in vivo; remark: listed apart in the source
Description: The enzyme lactate dehydrogenase (or also called “lactic acid dehydrogenase” (LDH)), an enzyme which is found in almost all the tissues in the human body, has been determined to detect injuries in tissues such as the liver. It plays an important role in cellular respiration (the process in which glucose from foods is converted into energy which can be used by cells).
Although LDH is abundant in tissue cells, the levels in blood are generally low. However, when tissues are damaged as a result of an injury or a disease, they release more LDH into the blood stream. This increase in the amount of LDH in the blood stream is often caused by the following conditions: liver diseases, heart attacks, anemia, muscle trauma, bone fracture, cancer, infections such as meningitis, encephalitis, or HIV.

[6] = test system: Covid-19 patients admitted to the ICU; assay: Efficacy and safety of IV melatonin in Covid-19 patients admitted to the ICU: hospital/ICU stay, mechanical ventilation, adverse reactions; type: in vivo, human
Description: as §1, §2, §3, §4

[7] = 5 mg/kg/day iv every 6 hours, 7 days

SMILES: COc1ccc2[nH]cc(CCNC(C)=O)c2c1 [melatonin, N-acetyl-5-methoxytryptamine]
- Inflammatory response ([1]; 5 mg/kg/day for 7 days): improvement in the inflammatory response
- Levels of dimer-D (D-dimer) ([1]; during the days of treatment, FIG. 2): reduction
- Levels of ferritin ([1]; during the days of treatment, FIG. 3): reduction
- Levels of CRP ([1]; during the days of treatment, FIG. 4): reduction
- IL6 ([1]; during the days of treatment, FIG. 5): reduction
- Bilirubin ([1]; during treatment): has to drop
- Neutrophils ([1]; during treatment): tendency of neutrophils decreasing
- Lymphocytes with respect to placebo ([1]; during treatment, FIG. 6): increase
- Levels of creatinine compared between groups A and B in each time point [2]: no statistically significant differences
- Levels of urea compared between the two groups in each time point [2]: higher in group B (placebo)
- ALP (alkaline phosphatase): average values between groups [3]: not statistically significant
- GGT: average values between groups [3]: not statistically significant
- GOT: differences in average values between groups [3]: not statistically significant
- GPT: average values between groups [3]: not statistically significant
- Neutrophil average, group A compared with group B (placebo) [4]: higher in group B (placebo) than in group A (melatonin)
- Levels of LDH compared between the two groups in each time point [5]: higher in group A (melatonin)
- Adverse reactions ([6]; 5 mg/kg/day for 7 days): did not cause any adverse reactions
- Increase in the number of days without mechanical ventilation compared to placebo ([6]; 5 mg/kg/day for 7 days): 16 days
- Reduction in invasive mechanical ventilation compared to placebo ([6]; 5 mg/kg/day for 7 days): 9 days
- Days without mechanical ventilation during hospitalization (MV-free days) [6, 7]: 40 days
- Duration of ICU admission compared to placebo [6, 7]: no significant difference
- Duration of invasive mechanical ventilation [6, 7]: 21 days
- Duration of non-invasive mechanical ventilation [6, 7]: 16.5 days
- Reduction in hospital stay compared to placebo [6, 7]: 15 days
